From PubChem BioAssay (NCI)
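GI50 is the concentration that inhibits growth by half. TGI is the concentration that stops growth completely.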

Tests used:
Experiment in all cases: inhibition of tumour cell growth, NCI panel, 384-well format
786-0 renal = test system: 786-0 renal
A498 renal = test system: A498 renal
ACHN renal = test system: ACHN renal
BT-549 breast = test system: BT-549 breast
CAKI-1 renal = test system: CAKI-1 renal
CCRF-CEM leukemia = test system: CCRF-CEM leukemia
COLO 205 colon = test system: COLO 205 colon
DU-145 prostate = test system: DU-145 prostate
EKVX NSCLC = test system: EKVX NSCLC
HCC-2998 colon = test system: HCC-2998 colon
HCT-116 colon = test system: HCT-116 colon
HCT-15 colon = test system: HCT-15 colon
HL-60(TB) leukemia = test system: HL-60(TB) leukemia
HOP-62 NSCLC = test system: HOP-62 NSCLC
HOP-92 NSCLC = test system: HOP-92 NSCLC
HS 578T breast = test system: HS 578T breast
HT29 colon = test system: HT29 colon
K-562 leukemia = test system: K-562 leukemia
LOX IMVI melanoma = test system: LOX IMVI melanoma
M14 melanoma = test system: M14 melanoma
MALME-3M melanoma = test system: MALME-3M melanoma
MCF7 breast = test system: MCF7 breast
MDA-MB-231 breast = test system: MDA-MB-231 breast
MDA-MB-468 breast = test system: MDA-MB-468 breast
MOLT-4 leukemia = test system: MOLT-4 leukemia
NCI-H226 lung = test system: NCI-H226 lung
NCI-H23 lung = test system: NCI-H23 lung
NCI-H322M lung = test system: NCI-H322M lung
NCI-H460 NSCLC = test system: NCI-H460 NSCLC
NCI/ADR-RES ovarian = test system: NCI/ADR-RES ovarian
OVCAR-3 ovarian = test system: OVCAR-3 ovarian
OVCAR-5 ovarian = test system: OVCAR-5 ovarian
OVCAR-8 ovarian = test system: OVCAR-8 ovarian
PC-3 prostate = test system: PC-3 prostate
RPMI-8226 leukemia = test system: RPMI-8226 leukemia
RXF 393 renal = test system: RXF 393 renal
SF-268 CNS = test system: SF-268 CNS
SF-539 CNS = test system: SF-539 CNS
SK-MEL-2 melanoma = test system: SK-MEL-2 melanoma
SK-MEL-28 melanoma = test system: SK-MEL-28 melanoma
SK-MEL-5 melanoma = test system: SK-MEL-5 melanoma
SK-OV-3 ovarian = test system: SK-OV-3 ovarian
SNB-19 CNS = test system: SNB-19 CNS
SNB-75 CNS = test system: SNB-75 CNS
SR leukemia = test system: SR leukemia
TK-10 renal = test system: TK-10 renal
UACC-257 melanoma = test system: UACC-257 melanoma

In the case of `CC#CC(=O)N1CC[C@@H](n2c(=O)n(-c3ccc(Oc4ccccc4)cc3)c3c(N)ncnc32)C1`, the GI50 ([…]-0 renal) is reported as 23 µM, the TGI (786-0 renal) is reported as 66.1 µM and the GI50 (A498 renal) is reported as 21.7 µM. For the same compound, the TGI (A498 renal) was > 74.2 µM, the GI50 (ACHN renal) was 31.6 µM and the TGI (ACHN renal) was > 100 µM. The GI50 (BT-549 breast) was 16.6 µM, the TGI (BT-549 breast) was 33.9 µM and the GI50 (CAKI-1 renal) was 23.5 µM. For the same compound, the TGI (CAKI-1 renal) was > 100 µM, the GI50 (CCRF-CEM leukemia) was 11.4 µM and the TGI (CCRF-CEM leukemia) was 23.7 µM. The GI50 (COLO 205 colon) was 37.1 µM, the TGI (COLO 205 colon) was > 100 µM and the GI50 (DU-145 prostate) was 25.5 µM. For the same compound, the TGI (DU-145 prostate) was > 70.2 µM, the GI50 (EKVX NSCLC) was 20.7 µM and the TGI (EKVX NSCLC) was > 77.2 µM. It also gave a GI50 (HCC-2998 colon) of 24.5 µM, a TGI (HCC-2998 colon) of 49.4 µM and a GI50 (HCT-116 colon) of 22.1 µM. The TGI (HCT-116 colon) was 54.8 µM, the GI50 (HCT-15 colon) was 28.6 µM and the TGI (HCT-15 colon) was > 89.5 µM. For the same compound, the GI50 (HL-60(TB) leukemia) was 13.9 µM, the TGI (HL-60(TB) leukemia) was 26.9 µM and the GI50 (HOP-62 NSCLC) was 21.3 µM. For the same compound, the TGI (HOP-62 NSCLC) was 61.8 µM, the GI50 (HOP-92 NSCLC) was 13.4 µM and the TGI (HOP-92 NSCLC) was > 59.6 µM. The GI50 (HS 578T breast) was 22.1 µM, the TGI (HS 578T breast) was 55.9 µM and the GI50 (HT29 colon) was 32.2 µM. The TGI (HT29 colon) was > 100 µM, the GI50 (K-562 leukemia) was 12.5 µM and the TGI (K-562 leukemia) was 38.4 µM. The GI50 (LOX IMVI melanoma) was 18.8 µM, the TGI (LOX IMVI melanoma) was 36.2 µM and the GI50 (M14 melanoma) was 22.7 µM. The TGI (M14 melanoma) was 50.1 µM, the GI50 (MALME-3M melanoma) was 37.2 µM and the TGI (MALME-3M melanoma) was > 100 µM. The TGI (MCF7 breast) was 80.6 µM, the GI50 (MDA-MB-231 breast) was 22 µM and the TGI (MDA-MB-231 breast) was > 67.8 µM. It also gave a GI50 (MDA-MB-468 breast) of 10.1 µM, a TGI (MDA-MB-468 breast) of 24.5 µM and a GI50 (MOLT-4 leukemia) of 3.13 µM. For the same compound, the TGI (MOLT-4 leukemia) was 12.7 µM, the GI50 (NCI-H226 lung) was 21.8 µM and the TGI (NCI-H226 lung) was > 74.4 µM. For the same compound, the GI50 (NCI-H23 lung) was 30.9 µM, the TGI (NCI-H23 lung) was 99.6 µM and the GI50 (NCI-H322M lung) was 27.5 µM. For the same compound, the TGI (NCI-H322M lung) was > 100 µM, the GI50 (NCI-H460 NSCLC) was 17.1 µM and the TGI (NCI-H460 NSCLC) was 33.4 µM. For the same compound, the GI50 (NCI/ADR-RES ovarian) was 15.7 µM, the TGI (NCI/ADR-RES ovarian) was 41.3 µM and the GI50 (OVCAR-3 ovarian) was 14.3 µM. For the same compound, the TGI (OVCAR-3 ovarian) was 31.3 µM, the GI50 (OVCAR-5 ovarian) was > 64.3 µM and the TGI (OVCAR-5 ovarian) was > 100 µM. For the same compound, the GI50 (OVCAR-8 ovarian) was 27.6 µM, the TGI (OVCAR-8 ovarian) was > 100 µM and the GI50 (PC-3 prostate) was 35.1 µM. For the same compound, the TGI (PC-3 prostate) was > 100 µM, the GI50 (RPMI-8226 leukemia) was 7.89 µM and the TGI (RPMI-8226 leukemia) was 23 µM. The GI50 (RXF 393 renal) was 13.4 µM, the TGI (RXF 393 renal) was 32.2 µM and the GI50 (SF-268 CNS) was 25.1 µM. For the same compound, the TGI (SF-268 CNS) was > 65 µM, the GI50 (SF-539 CNS) was 21.6 µM and the TGI (SF-539 CNS) was 53.6 µM. For the same compound, the GI50 (SK-MEL-2 melanoma) was 18.1 µM, the TGI (SK-MEL-2 melanoma) was 34.7 µM and the GI50 (SK-MEL-28 melanoma) was 68.3 µM. For the same compound, the TGI (SK-MEL-28 melanoma) was > 100 µM, the GI50 (SK-MEL-5 melanoma) was 17.7 µM and the TGI (SK-MEL-5 melanoma) was 47 µM. The GI50 (SK-OV-3 ovarian) was 33.5 µM, the TGI (SK-OV-3 ovarian) was > 87.1 µM and the GI50 (SNB-19 CNS) was 23.3 µM. The TGI (SNB-19 CNS) was > 64.3 µM, the GI50 (SNB-75 CNS) was 28.6 µM and the TGI (SNB-75 CNS) was 77.2 µM. The GI50 (SR leukemia) was 5.69 µM, the TGI (SR leukemia) was 18.6 µM and the GI50 (TK-10 renal) was 36.5 µM. The TGI (TK-10 renal) was > 100 µM, the GI50 (UACC-257 melanoma) was 19.7 µM and the TGI (UACC-257 melanoma) was 67.2 µM.
